Measured values from ChEMBL document CHEMBL4483862, “Open-source discovery of chemical leads for next-generation chemoprotective antimalarials” (2018).

Test system: Plasmodium berghei
Assay: Luciferase/luciferin-expressing antifolate-resistant parasites were used to infect a culture of HepG2 cells that were pre-incubated with compounds. Infected hepatocytes emit light due to the luciferase reaction. Assay results are presented as the percent inhibition of light emission compared to control. […]
Type: functional
Conditions: sporozoite; for IC90: read-out: LUCIFERASE INFECTION ASSAY - IC90
[1] = read-out: LUCIFERASE INFECTION ASSAY - IC50

CCCCOC1(c2ccc(C)cc2)N=C(SCC(=O)NCC(C)C)NN=C1c1ccc(C)cc1 (configuration not stated)
IC50 (PBLUC_HILL_SLOPE 3.83, PBLUC_R_SQUARED 0.417, read-out: LUCIFERASE INFECTION ASSAY - IC50): 6.12 µM | IC90: > 10 µM

CCOC(=O)c1c(S(=O)(=O)N2CCN(c3ncccc3C(F)(F)F)CC2)c(-c2ccccc2)n(-c2ccccc2)c1C
IC50 (FFLUC_HILL_SLOPE 0.343, FFLUC_R_SQUARED 0.352, PBLUC_HILL_SLOPE 1.97, PBLUC_R_SQUARED 0.72, read-out: LUCIFERASE INFECTION ASSAY - IC50): > 5.51 µM | IC90: > 5.51 µM

Cc1ccc(C(=O)Nc2ccccc2Sc2ncc([N+](=O)[O-])s2)cc1
IC50 (FFLUC_HILL_SLOPE 77.3, FFLUC_R_SQUARED 0.701, read-out: LUCIFERASE INFECTION ASSAY - IC50): > 8.88 µM | IC90: > 8.88 µM

CCn1c(SCc2csc(N(C(C)=O)c3c(C)cc(C)cc3Cl)n2)nnc1C1CC1
IC50 [1]: > 10 µM | IC90: > 10 µM

Cc1[nH]c2ccccc2c1C(=O)/C(C#N)=C/c1ccc(-c2ccc(S(=O)(=O)N3CCOCC3)cc2)o1
IC50 (FFLUC_HILL_SLOPE 49.5, FFLUC_R_SQUARED 0.839, HEPG2TOX_HILL_SLOPE 4, HEPG2TOX_R_SQUARED 0.152, PBLUC_HILL_SLOPE 1.9, PBLUC_R_SQUARED 0.247, read-out: LUCIFERASE INFECTION ASSAY - IC50): 5.12 µM | IC90: > 10 µM

Cc1csc(-c2nc(-c3ccc(C(C)(C)C)cc3)no2)c1
IC50 [1]: > 11.1 µM | IC90: > 11.1 µM

NC(=O)C1CCN(c2cc(-c3nc4ccccc4s3)c3ccccc3n2)CC1
IC50 (PBLUC_HILL_SLOPE 7.92, PBLUC_R_SQUARED 0.452, read-out: LUCIFERASE INFECTION ASSAY - IC50): 8.36 µM | IC90: > 10 µM

CCOC(=O)c1cnc(NNC(=O)c2ccc(Cl)cc2Cl)nc1C(F)(F)F
IC50 [1]: > 7.8 µM | IC90: > 7.8 µM

Cc1sc2nc(-c3cccnc3)nc(N3CCN(C(=O)C4COc5ccccc5O4)CC3)c2c1C (configuration not stated)
IC50 (PBLUC_HILL_SLOPE 15.9, PBLUC_R_SQUARED 0.0253, read-out: LUCIFERASE INFECTION ASSAY - IC50): 9.35 µM | IC90: > 10 µM

N#Cc1ccc(C=C2C(=O)Nc3ccccc3NC2=O)cc1
IC50 [1]: > 10 µM | IC90: > 10 µM

CC(c1ccc(S(C)(=O)=O)cc1)N(C)S(=O)(=O)c1ccccc1F (configuration not stated)
IC50 [1]: > 10 µM | IC90: > 10 µM

Cc1occc1C(=O)N1CCN(C(=O)c2ccc3ccccc3c2)CC1
IC50 [1]: > 2 µM | IC90: > 2 µM

FC(F)(F)Oc1ccc(Nc2n[nH]c(=S)s2)cc1
IC50 (FFLUC_HILL_SLOPE 16.2, FFLUC_R_SQUARED 0.24, PBLUC_HILL_SLOPE 2.38, PBLUC_R_SQUARED 0.611, read-out: LUCIFERASE INFECTION ASSAY - IC50): 1.99 µM | IC90: 5 µM

Cc1cccc(N2CCN(c3cc(C)nc4c(-c5ccccc5)c(C)nn34)CC2)n1
IC50 [1]: > 8.28 µM | IC90: > 8.28 µM

CSc1nc(N/C=C2/C(=O)c3ccccc3N(C)S2(=O)=O)nc(N(C)C)n1
IC50 [1]: > 8.12 µM | IC90: > 8.12 µM

Cc1nn(Cc2ccccc2Cl)c2sc(C(=O)OC(C)c3nc(=O)c4ccccc4[nH]3)cc12 (configuration not stated)
IC50 (PBLUC_HILL_SLOPE 18.8, PBLUC_R_SQUARED 0.168, read-out: LUCIFERASE INFECTION ASSAY - IC50): 9.99 µM | IC90: > 10 µM

COc1cc(-c2cnc3c(Nc4cccc(OC(F)(F)C(F)F)c4)nccn23)cc(OC)c1OC
IC50 (HEPG2TOX_HILL_SLOPE 8.4, HEPG2TOX_R_SQUARED 0.356, PBLUC_HILL_SLOPE 3.39, PBLUC_R_SQUARED 0.397, read-out: LUCIFERASE INFECTION ASSAY - IC50): 2.81 µM | IC90: 5.38 µM

CC1CCCN(c2ccc(C#N)cn2)C1 (configuration not stated)
IC50 (HEPG2TOX_HILL_SLOPE 1.55, HEPG2TOX_R_SQUARED 0.88, PBLUC_HILL_SLOPE 1.47, PBLUC_R_SQUARED 0.333, read-out: LUCIFERASE INFECTION ASSAY - IC50): > 10 µM | IC90: > 10 µM

COC(=O)c1c(NC(=O)C2CCOC2)c2cc(NCC(C)(C)C)cnc2n1CCc1c[nH]c2ccccc12 (configuration not stated)
IC50 (PBLUC_HILL_SLOPE 3.23, PBLUC_R_SQUARED 0.492, read-out: LUCIFERASE INFECTION ASSAY - IC50): 4.09 µM | IC90: > 6.38 µM

CCN1C(=O)N(Cc2cccc(OC)c2)C(=O)C12CCN(CC(c1ccccc1)c1ccccc1)CC2
IC50 (PBLUC_HILL_SLOPE 15.1, PBLUC_R_SQUARED 0.228, read-out: LUCIFERASE INFECTION ASSAY - IC50): 6.16 µM | IC90: > 6.63 µM

CCOc1cccc(-c2cn3c(-c4ccc(OC)cc4)cnc3cn2)c1
IC50 (HEPG2TOX_HILL_SLOPE 0.801, HEPG2TOX_R_SQUARED 0.8, PBLUC_HILL_SLOPE 14.9, PBLUC_R_SQUARED 0.835, read-out: LUCIFERASE INFECTION ASSAY - IC50): 0.324 µM | IC90: 0.375 µM

Cc1cccc(C)c1OCCOC(=O)c1[nH]nc2ccccc12
IC50 [1]: > 10 µM | IC90: > 10 µM

COc1ccc(/C=C2\CCCc3c2nc2ccccc2c3C(=O)OCc2cccc(C(F)(F)F)c2)cc1OC
IC50 [1]: > 10 µM | IC90: > 10 µM

CCCn1c(SCc2ccccc2F)n[nH]c1=O
IC50 [1]: > 10 µM | IC90: > 10 µM

COc1ccc(C2CC(=O)c3c(n[nH]c3C)C2)cc1 (configuration not stated)
IC50 (PBLUC_HILL_SLOPE 1.11, PBLUC_R_SQUARED 0.36, read-out: LUCIFERASE INFECTION ASSAY - IC50): 4.45 µM | IC90: > 12.9 µM

COc1ccc(N2C(=O)C(=O)N(Cc3c(C)cc(C(C)(C)C)cc3C)C2=O)cc1
IC50 (HEPG2TOX_HILL_SLOPE 7.7, HEPG2TOX_R_SQUARED 0.735, PBLUC_HILL_SLOPE 4.71, PBLUC_R_SQUARED 0.498, read-out: LUCIFERASE INFECTION ASSAY - IC50): 4.92 µM | IC90: 7.85 µM

O=C(NNC(=O)c1cnn(-c2ccccc2)c1C(F)(F)F)c1ccc2ccccc2n1
IC50 (HEPG2TOX_HILL_SLOPE 2.84, HEPG2TOX_R_SQUARED 0.957, PBLUC_HILL_SLOPE 16.4, PBLUC_R_SQUARED 0.688, read-out: LUCIFERASE INFECTION ASSAY - IC50): 3.28 µM | IC90: 3.75 µM

c1ccc(Nc2nc(-c3ccc4c(c3)OCCO4)cs2)nc1
IC50 (FFLUC_HILL_SLOPE 1.22, FFLUC_R_SQUARED 0.822, PBLUC_HILL_SLOPE 0.789, PBLUC_R_SQUARED 0.792, read-out: LUCIFERASE INFECTION ASSAY - IC50): 0.158 µM | IC90: 2.55 µM

CC(C)c1ccc(/C=C2\CCc3c2nc2ccccc2c3C(=O)O)cc1
IC50 (PBLUC_HILL_SLOPE 81.7, PBLUC_R_SQUARED 0.0337, read-out: LUCIFERASE INFECTION ASSAY - IC50): 0.0256 µM | IC90: 0.0263 µM

O=C1c2ccccc2C(=Cc2ccsc2)c2ccccc21
IC50 (PBLUC_HILL_SLOPE 16.4, 0.310, PBLUC_R_SQUARED 0.161, 0.532, read-out: LUCIFERASE INFECTION ASSAY - IC50): 4.9 µM | IC90: > 10 µM

CN(C)c1ccc(CNCCC(c2ccc(F)cc2)c2ccco2)cc1 (configuration not stated)
IC50 (HEPG2TOX_HILL_SLOPE 13.3, HEPG2TOX_R_SQUARED 0.508, PBLUC_HILL_SLOPE 4.7, PBLUC_R_SQUARED 0.649, read-out: LUCIFERASE INFECTION ASSAY - IC50): 1.15 µM | IC90: 1.83 µM

CCOC(=O)c1cnn(-c2ccc(NC(=O)COc3ccccc3C#N)cc2)c1C(F)(F)F
IC50 [1]: > 10 µM | IC90: > 10 µM

CC(C)c1ccccc1NC(=O)COC(=O)C(C)(C)Oc1ccc(Cl)cc1
IC50 [1]: > 10 µM | IC90: > 10 µM

Cn1c(Nc2cccc(C(F)(F)F)c2)nc2cnc(-c3ccoc3)cc21
IC50 [1]: > 10 µM | IC90: > 10 µM

CC(C)CNC(=O)c1cc(Br)ccc1O
IC50 [1]: > 10 µM | IC90: > 10 µM

Fc1ccc(-c2nc3ccnc(Nc4ccccc4)c3[nH]2)cc1F
IC50 (PBLUC_HILL_SLOPE 2.79, PBLUC_R_SQUARED 0.219, read-out: LUCIFERASE INFECTION ASSAY - IC50): 5.41 µM | IC90: > 10 µM

Cc1cc(C(=O)Nc2ccncc2Cl)c(C)s1
IC50 [1]: > 10 µM | IC90: > 10 µM

COC(=O)c1sc(SC)c2c1CC(C)(C)C/C2=N\O
IC50 [1]: > 11 µM | IC90: > 11 µM

O=[N+]([O-])c1cnc(Sc2nnc(-c3ccccc3)[nH]2)s1
IC50 [1]: > 10.8 µM | IC90: > 10.8 µM

CN1c2ccsc2C(=O)/C(=C\Nc2ccccc2Cl)S1(=O)=O
IC50 [1]: > 9.3 µM | IC90: > 9.3 µM

COc1cc(C(=O)NNC(=O)c2ccc(Br)cc2)ccc1OCc1c(C)noc1C
IC50 (HEPG2TOX_HILL_SLOPE 1.09, HEPG2TOX_R_SQUARED 0.959, PBLUC_HILL_SLOPE 2.18, PBLUC_R_SQUARED 0.498, read-out: LUCIFERASE INFECTION ASSAY - IC50): 2.59 µM | IC90: 7.1 µM

CCn1nc(C)cc1-c1nnc(SCc2ccccc2)n1-c1cccc(C(F)(F)F)c1
IC50 [1]: > 7.44 µM | IC90: > 7.44 µM

O=C1C=C/C(=N\Nc2ccc3c(c2)OCCO3)c2cccnc21
IC50 (HEPG2TOX_HILL_SLOPE 2.89, HEPG2TOX_R_SQUARED 0.923, PBLUC_HILL_SLOPE 13, PBLUC_R_SQUARED 0.601, read-out: LUCIFERASE INFECTION ASSAY - IC50): 3.33 µM | IC90: 3.95 µM

O=c1c2ccccc2oc2nc(-c3ccccc3)n(Cc3ccccc3)c(=O)c12
IC50 (PBLUC_HILL_SLOPE 10.1, PBLUC_R_SQUARED 0.696, read-out: LUCIFERASE INFECTION ASSAY - IC50): 3.55 µM | IC90: 4.41 µM

COCc1cccc(-c2cc(-c3cc4ccccc4s3)cnc2N)c1
IC50 (HEPG2TOX_HILL_SLOPE 6.43, HEPG2TOX_R_SQUARED 0.192, PBLUC_HILL_SLOPE 1.27, PBLUC_R_SQUARED 0.564, read-out: LUCIFERASE INFECTION ASSAY - IC50): 5.74 µM | IC90: > 9.53 µM

CC(C)(C)c1ccc(C2NCC(c3ccc(Cl)cc3Cl)c3c2[nH]c2ccccc32)cc1 (configuration not stated)
IC50 (FFLUC_HILL_SLOPE 4.79, FFLUC_R_SQUARED 0.608, HEPG2TOX_HILL_SLOPE 0.722, HEPG2TOX_R_SQUARED 0.602, PBLUC_HILL_SLOPE 10.9, PBLUC_R_SQUARED 0.683, read-out: LUCIFERASE INFECTION ASSAY - IC50): 3.34 µM | IC90: 4.09 µM
